The results in this text go back to US20090311716A1, “METHODS TO TREAT OR PREVENT HORMONE-RESISTANT PROSTATE CANCER USING siRNA [sequence] FOR PROTOCADHERIN-PC, OR OTHER INHIBITORS OF PROTOCADHERIN-PC EXPRESSION OR ACTIVITY” (THE TRUSTEES OF COLUMBIA UNIVERSITY IN THE CITY OF NEW YORK, priority 2005, published 2009).

Holding throughout (type): cell-based, human
The subject of series [1] is LNCaP cells. Description: Flow cytometry of propidium iodide stained cells, sub-G0 peak (cell death). To be noted: for dead cells (sub-G0 peak): LNCaP in androgen-free medium 5 days, then siRNA transfection a further 48 hrs. How it is done: FIG. 18. Selective killing of LNCaP cells grown in androgen-free medium by PCDH-PC siRNA. LNCaP cells grown in normal medium or in androgen-free medium (phenol red-free RPMI supplemented with CS-FBS) for 5 days were transfected with PCDH-PC siRNA (#181) or with lamin siRNA, as indicated for a further 48 hrs. Cells were collected, fixed and stained with propidium iodide and were analyzed by flow cytometry. Bars represent the % population of cells in the sub-G0 peak considered to be apoptotic. The bars are averages based on two measurements under each condition. No siRNAs were untransfected cells.
siRNAs and Transfection of Cultured Human Prostate Cancer Cells. Commercial siRNAs targeting human β-catenin and lamin A were purchased from Dharmacon, Inc. (Chicago, Ill.). Three different siRNAs targeting PCDH-PC were designed using the siRNA Target Finder software program available through Ambion, Inc. (Austin, Tex.). The anti-PCDH-PC siRNAs targeted sequences at position 3043-3062 (#181; SEQ ID NO:4; FIG. 29), 3098-3117 (#190; SEQ ID NO:6; FIG. 31) or 3345-3364 (#208; SEQ ID NO:7; FIG. 32) on the PCDH-PC mRNA. The 21 bp siRNAs were constructed using the 19 bp core sequences described above with 2 nucleotide UU overhangs and these siRNAs were produced and provided by Ambion, Inc. siRNAs were transfected or co-transfected (with other expression vectors as described) into LNCaP cells at 100 nM final concentrations using Lipofectamine 2000 transfection reagent (Invitrogen Life Technologies, Inc.) in serum-free medium as instructed by the manufacturer. 48 hrs after transfection, cells were harvested and extracted for protein or RNA as described below.
A general note: In flow cytometry, cells or beads pass a laser one at a time.

The test system of series [2] is Akt. Description: Western blot of phosphorylated Akt / MDM2 in LNCaP cells in androgen-free medium. To be noted: androgen-free medium 5 days then transfected 2 days. The text has this: FIG. 15. Proteins were extracted from untransfected LNCaP cells maintained in androgen free medium for 7 days (CS-FBS Control) or from 7-day androgen-free LNCaP cells that were transfected for 48 hrs with β-catenin siRNA (CS-FBS+beta-Cat siRNA) or dominant negative Tcf (CS-FBS+DN-Tcf) or PCDH-PC siRNA 181 (CS-FBS+PCDH-PC siRNA) or lamin siRNA (CS-FBS+lamin siRNA). Equal aliquots of protein were electrophoresed on a polyacrylamide gel and then blotted onto a PVDF filter to produce a Western blot. The same blot was probed with an antibody against Akt protein (top panel) or against phosphorylated Akt (ser 473) (second panel) or with an antibody against MDM2 protein (third panel) or phosphorylated MDM2 protein (bottom panel). […] The blockade of Akt phosphorylation by PCDH-PC siRNA could be involved in the process through which this molecule induces the death of prostate cancer cells under androgen-free conditions. […]
Preparation of cell extracts and western blots. Cells were harvested and protein extracts prepared, quantified and used to prepare Western blots as previously described (Example 1; Yang et al., 2005). […] Recombinant Wnt-1 protein (HA-tagged) was detected with anti-HA antibody (Clontech Inc., Mountain View, Calif.). Antibody binding to the Western blot was detected as previously described (Yang et al., 2005). […]
In general terms: In western blotting, separated proteins are transferred to a membrane and probed.

The test system of series [3] is Tcf-sensitive reporter pTOP (wnt signaling). Description: Tcf-sensitive pTOP luciferase reporter assay (wnt signaling) in LNCaP cells. The following applies: 7 days in androgen-free medium. The text has this:
FIGS. 5A-5C. siRNAs against PCDH-PC suppress PCDH-PC expression, TCF-mediated transcription and NE transdifferentiation in LNCaP cells grown in androgen-free medium. FIG. 5A. RNAs extracted from LNCaP cells grown in normal medium (Control) or in androgen-free medium (CS-FBS, None) were compared toRNAs from LNCaP cells grown in androgen-free medium transfected with siRNAs against PCDH-PC (181, 190 and 208) or siRNA against lamin by RT-PCR using primers specific for PCDH-PC (Top Panel) or β-actin (Bottom Panel). PCR reaction products were electrophoresed on agarose gels and were visualized after ethidium bromide staining under UV light. FIG. 5B. LNCaP cells cultured in normal medium (Control) were compared to LNCaP cells grown in androgen-free medium for 7 days without or with transfection with siRNA 181 against PCDH-PC or siRNA against lamin for expression of luciferase from the TCF-sensitive reporter pTOP for normalized luciferase activity. FIG. 5C. […]
Expression Vectors, Transfection Protocols and Luciferase/β-Glactosidase Assays. […] Luciferase activity in cell extracts was measured using the Luciferase Assay System of Promega, Inc. (Madison, Wis.). β-galactosidase activity was also measured in the same cell extracts using the β-galactosidase Enzyme Assay System of Promega, Inc. All experiments involving luciferase reporter vectors were done in triplicate for each point.
(In a reporter assay the amount or activity of a reporter protein is the signal.)

Series [4] has as its system PCDH-PC. Description: Western blot of myc-tagged PCDH-PC in LNCaP cells co-transfected with pPCDH-PC-myc and siRNA. To be noted: siRNA 100 nM co-transfected with pPCDH-PC-myc, 48 hrs; listed as #181. An excerpt: FIGS. 4A-4B. siRNAs against PCDH-PC suppress PCDH-PC expression and NE transdifferentiation of LNCaP cells. FIG. 4A. LNCaP cells were transfected with the pPCDH-PC-myc expression vector and were co-transfected with siRNA against human lamin or siRNAs 181, 190 or 208 designed to suppress PCDH-PC expression. A Western blot made against protein extracts from these cells were probed with anti-myc (Top Panel) to identify expression of the 110 kd PCDH myc-tagged protein, anti-β-actin (Middle Panel) or anti-human E-cadherin (Bottom Panel). FIG. 4B. A repeated experiment that includes control LNCaP cells (no transfection) or pCMV-PCDH-myc transfected LNCaP cells co-transfected with siRNAs against lamin or against PCDH-PC (181, 190 or 208). The Western blot was probed for NSE expression (Top Panel) or for β-actin expression (Bottom Panel).
Expression Vectors, Transfection Protocols and Luciferase/β-Glactosidase Assays. PCDH-PC cDNA was inserted into the mammalian expression vectors pcDNA3 (Invitrogen Life Technologies, Inc., Carlsbad, Calif.) or into pCMV-myc (BD Biosciences, Clontech, Inc., Palo Alto, Calif.) so that the PCDH-PC product generated from this vector (pPCDH-PC-myc) has a C-terminal myc tag. An expression vector containing cDNA encoding a mutated (stabilized) form of human β-catenin (Tetsu and McCormick, 1999) was used. A dominant-negative Tcf expression vector used was previously described (Chen et al., 2001). The Tcf-sensitive reporter vector, pTOP and a CMV-promoted β-galactosidase expression vector were obtained from Upstate Biotechnology, Inc. Transfections used for protein or RNA extractions were done in 35 cm^2 dishes with cells plated at 50% density 12-16 hrs prior. […] Luciferase activity in cell extracts was measured using the Luciferase Assay System of Promega, Inc. (Madison, Wis.). β-galactosidase activity was also measured in the same cell extracts using the β-galactosidase Enzyme Assay System of Promega, Inc. All experiments involving luciferase reporter vectors were done in triplicate for each point. […]

Entries after “also recorded” stand apart in the source; their conditions may differ.

Take “siRNA #181: 21 bp siRNA targeting PCDH-PC mRNA position 3043-3062, 19 bp core with UU overhangs (SEQ ID NO:4) (AAGCATTGAAGCACCAGTGAC; listed as DNA, further chemistry not given here)”: the “selectivity of cell death induction, androgen-free versus normal medium” value in series [1] (LNCaP) is given as “specific to cells grown in androgen free medium, not in normal medium”. The figures for the “dead cells (sub-G0 peak)” value in series [1] (listed as #181), in series [1] (listed as PCDH-PC siRNA) and in series [1] (listed as siRNA against PCDH-PC) were “approximately 58%”, 58% and 58%, respectively. In addition, the “cell death relative to untransfected cells or cells transfected with lamin siRNA” value in series [1] (LNCaP, androgen-free medium 7 days) is on record as “greater than 4 ×”. Further, the “Akt phosphorylation (pAkt; and MDM2 phosphorylation)” value in series [2] was “reduced”. Further, the “induced luciferase expression from pTOP reporter (wnt signaling)” value in series [3] is listed as “completely suppressed”. The “expression of myc-tagged PCDH-PC polypeptide” value in series [4] is recorded as “suppressive effects; also recorded: most effective”.
